Results published in the supplement of paper PMC10307832.

compound: Cc1ccc2nc(NCCN)c3ncc(C)n3c2c1 + C[C@@H](Oc1cc(-c2cnn(C3CCNCC3)c2)cnc1N)c1c(Cl)ccc(F)c1Cl [Crizotinib] (partner 1 µM); assay: relative viability (nuclei count vs DMSO), 5 days (fraction); higher = more cells survive; details: first compound 4 µM
Procedure, shortened: (§1)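 After 5 days of treatment, lung cancer cells in 1536-well plates were fixed and stained in a single step (final 0.05% Triton X-100, 1% formaldehyde, 1 ug/ml Hoechst) and their nuclei counted on 4× images. Treatment had been applied by pin tool the day after seeding as one drug alone or as a fixed anchor-drug dose with five library-drug doses (not always all listed) in √10 steps. Relative viability is the nuclei count of treated wells divided by that of vehicle wells, and values are medians of duplicate plates.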

Question: For NCI-H3122, which relative viability is on record?
Answer: 0.318

compound: Cc1ccc2nc(NCCN)c3ncc(C)n3c2c1 + C[C@]1(O)C[C@@H](c2nc(-c3ccc4ccc(-c5ccccc5)nc4c3)c3c(N)nccn32)C1 [Linsitinib] (partner 1 µM); assay: as above; details: first compound 0.04 µM
Procedure, shortened: as §1

Question: How did the relative viability turn out when COR-L23 was run?
Answer: 0.993

Question: How did the relative viability turn out when COR-L 105 was run?
Answer: 1.11

Question: Which relative viability does the source give for LOU-NH91 here?
Answer: 0.964

Question: For NCI-H2405, which relative viability is on record?
Answer: 0.942

Question: With HOP-62 as the cell line, how does the relative viability read?
Answer: 1.11

Question: HCC-44 was tested. Which relative viability did it give?
Answer: 0.869

Question: Which relative viability does the source give for SK-MES-1 here?
Answer: 1.08

Question: LU99A was tested. Which relative viability did it give?
Answer: 0.568

Question: With BEN as the cell line, how does the relative viability read?
Answer: 0.916

Question: Which relative viability does the source give for HARA here?
Answer: 1.01

Question: With HCC-78 as the cell line, how does the relative viability read?
Answer: 0.539

Question: With NCI-H322M as the cell line, how does the relative viability read?
Answer: 0.889

Question: Which relative viability does the source give for LCLC-97TM1 here?
Answer: 0.204

Question: For NCI-H2009, which relative viability is on record?
Answer: 1.15

Question: For A-427, which relative viability is on record?
Answer: 0.922

Question: How did the relative viability turn out when NCI-H661 was run?
Answer: 0.644

Question: With NCI-H1734 as the cell line, how does the relative viability read?
Answer: 0.887

Question: For NCI-H460, which relative viability is on record?
Answer: 0.759

Question: For NCI-H2347, which relative viability is on record?
Answer: 0.963

Question: SK-LU-1 was tested. Which relative viability did it give?
Answer: 1.18

Question: Which relative viability does the source give for 201T here?
Answer: 1

Question: With NCI-H1915 as the cell line, how does the relative viability read?
Answer: 1.1

Question: How did the relative viability turn out when HCC-827 was run?
Answer: 0.932

Question: Which relative viability does the source give for LXF-289 here?
Answer: 0.981

Question: For NCI-H23, which relative viability is on record?
Answer: 0.746

Question: With NCI-H647 as the cell line, how does the relative viability read?
Answer: 1.34

Question: CAL-12T was tested. Which relative viability did it give?
Answer: 0.835

Question: Which relative viability does the source give for NCI-H1651 here?
Answer: 0.982

Question: How did the relative viability turn out when EPLC-272H was run?
Answer: 1.44

Question: Which relative viability does the source give for NCI-H2228 here?
Answer: 0.642

Question: NCI-H1792 was tested. Which relative viability did it give?
Answer: 0.627

Question: Which relative viability does the source give for NCI-H1355 here?
Answer: 0.811

Question: How did the relative viability turn out when NCI-H3122 was run?
Answer: 1

same assay, conditions: first compound 0.1265 µM

Question: COR-L23 was tested. Which relative viability did it give?
Answer: 0.773

Question: COR-L 105 was tested. Which relative viability did it give?
Answer: 0.964

Question: How did the relative viability turn out when LOU-NH91 was run?
Answer: 0.865

Question: NCI-H2405 was tested. Which relative viability did it give?
Answer: 0.855

Question: How did the relative viability turn out when HOP-62 was run?
Answer: 0.912

Question: Which relative viability does the source give for HCC-44 here?
Answer: 0.632

Question: For SK-MES-1, which relative viability is on record?
Answer: 0.993

Question: LU99A was tested. Which relative viability did it give?
Answer: 0.524

Question: BEN was tested. Which relative viability did it give?
Answer: 0.785

Question: For HARA, which relative viability is on record?
Answer: 0.933

Question: With HCC-78 as the cell line, how does the relative viability read?
Answer: 0.537

Question: With NCI-H322M as the cell line, how does the relative viability read?
Answer: 0.907

Question: Which relative viability does the source give for LCLC-97TM1 here?
Answer: 0.166

Question: Which relative viability does the source give for NCI-H2009 here?
Answer: 1.14

Question: For A-427, which relative viability is on record?
Answer: 1.01

Question: How did the relative viability turn out when NCI-H661 was run?
Answer: 0.511

Question: With NCI-H1734 as the cell line, how does the relative viability read?
Answer: 0.803

Question: For NCI-H460, which relative viability is on record?
Answer: 0.735

Question: Which relative viability does the source give for NCI-H2347 here?
Answer: 1

Question: For SK-LU-1, which relative viability is on record?
Answer: 1.09

Question: Which relative viability does the source give for 201T here?
Answer: 1.09

Question: Which relative viability does the source give for HCC-827 here?
Answer: 0.936

Question: With LXF-289 as the cell line, how does the relative viability read?
Answer: 0.949

Question: NCI-H23 was tested. Which relative viability did it give?
Answer: 0.489

Question: For NCI-H647, which relative viability is on record?
Answer: 1.15

Question: How did the relative viability turn out when CAL-12T was run?
Answer: 0.873

Question: NCI-H1651 was tested. Which relative viability did it give?
Answer: 0.837

Question: For EPLC-272H, which relative viability is on record?
Answer: 1.02

Question: NCI-H2228 was tested. Which relative viability did it give?
Answer: 0.443

Question: NCI-H1792 was tested. Which relative viability did it give?
Answer: 0.543

Question: NCI-H1355 was tested. Which relative viability did it give?
Answer: 0.825

Question: For NCI-H3122, which relative viability is on record?
Answer: 1.03

same assay, conditions: first compound 0.4 µM

Question: Which relative viability does the source give for COR-L23 here?
Answer: 0.873

Question: COR-L 105 was tested. Which relative viability did it give?
Answer: 0.873

Question: LOU-NH91 was tested. Which relative viability did it give?
Answer: 0.977

Question: For NCI-H2405, which relative viability is on record?
Answer: 0.928

Question: How did the relative viability turn out when HOP-62 was run?
Answer: 1.11

Question: How did the relative viability turn out when HCC-44 was run?
Answer: 0.652

Question: Which relative viability does the source give for SK-MES-1 here?
Answer: 1.09

Question: Which relative viability does the source give for LU99A here?
Answer: 0.526

Question: With BEN as the cell line, how does the relative viability read?
Answer: 1.03

Question: With HARA as the cell line, how does the relative viability read?
Answer: 0.885

Question: How did the relative viability turn out when HCC-78 was run?
Answer: 0.496

Question: NCI-H322M was tested. Which relative viability did it give?
Answer: 0.857

Question: For LCLC-97TM1, which relative viability is on record?
Answer: 0.185

Question: For NCI-H2009, which relative viability is on record?
Answer: 1.22

Question: How did the relative viability turn out when A-427 was run?
Answer: 1.08

Question: How did the relative viability turn out when NCI-H661 was run?
Answer: 0.449
